Like-named read-outs stand apart in the source and are kept apart here.
How the values were obtained:
[1] = system: cancer cell lines classified IM, MSL, M; experiment: PRISM screen compound sensitivity correlated with IM, MSL and M subtype of cell lines (101 gene signature); assay type: cell-based
[2] = system: cancer cell lines, DetermaIO classes; experiment: Association of PRISM compound sensitivity with DetermaIO (DTIO) cell line classes; assay type: cell-based
[3] = correlation of PRISM compound sensitivity with IM subtype correlation, test cell set
[4] = correlation of PRISM compound sensitivity with M subtype correlation, test cell set
[5] = correlation of PRISM compound sensitivity with MSL subtype correlation, test cell set
[6] = correlation of PRISM compound sensitivity with DTIO, test cell set
[7] = correlation of PRISM compound sensitivity with DTIO, training cell set
[8] = subtype (IM, MSL or M) with which compound sensitivity is negatively correlated, training cell set (371 cell lines), 101 gene signature
[9] = correlation of PRISM compound sensitivity with IM subtype correlation, test cell set (188 cell lines)
[10] = correlation of PRISM compound sensitivity with M subtype correlation, test cell set (188 cell lines)
[11] = correlation of PRISM compound sensitivity with MSL subtype correlation, test cell set (188 cell lines)
[12] = subtype (IM, MSL or M) with which PRISM compound sensitivity is negatively correlated, training cell set, 101 gene signature
[13] = correlation of PRISM compound sensitivity with DTIO (DetermaIO), test cell set (188 cell lines)
[14] = correlation of PRISM compound sensitivity with DTIO (DetermaIO), training cell set (371 cell lines)
[15] = subtype (IM, MSL or M) assigned to the compound by negative correlation of PRISM sensitivity with subtype, training cell set (371 cell lines), 101 gene signature
[16] = association of compound sensitivity with DetermaIO classes, test data set
[17] = association of compound sensitivity with DetermaIO classes, training data set

C[C@@H](Oc1cc(NS(=O)(=O)N2CCC2)nc(SCc2cccc(F)c2F)n1)[C@@H](O)CO [AZD5069]
IM Corr test [1, 3]: −0.07882 | M Corr test [1, 4]: 0.1362 | MSL Corr test [1, 5]: 0.02875 | DTIO Corr test [2, 6]: −0.00725 | DTIO Corr train [2, 7]: −0.151

CC(C)=CCC[C@](C)(O[C@@H]1O[C@H](CO)[C@@H](O)[C@H](O)[C@H]1O)[C@H]1CC[C@]2(C)[C@@H]1[C@H](O)C[C@@H]1[C@@]3(C)CC[C@H](O[C@@H]4O[C@H](CO)[C@@H](O)[C@H](O)[C@H]4O[C@@H]4O[C@H](CO)[C@@H](O)[C@H](O)[C@H]4O)C(C)(C)[C@@H]3CC[C@]12C [ginsenoside-rd]
IM Corr test [1]: −0.05744 | M Corr test [1]: −0.00784 | MSL Corr test [1]: −0.02352 | TNBCType train [1, 8]: MSL | DTIO Corr test [2]: −0.0392 | DTIO Corr train [2]: −0.02011

Ro-25-6981
IM Corr test [1, 3]: −0.1513 | M Corr test [1, 4]: 0.04707 | MSL Corr test [1, 5]: −0.0147 | DTIO Corr test [2, 6]: −0.1247 | DTIO Corr train [2, 7]: −0.07012

CC(=O)OC[C@]12CCC(C)=C[C@H]1O[C@@H]1[C@H](O)[C@@H](OC(C)=O)[C@@]2(C)[C@]12CO2 [anguidine]
IM Corr test [1]: −0.1066 | M Corr test [1]: 0.09713 | MSL Corr test [1]: 0.2083 | DTIO Corr test [2]: −0.124 | DTIO Corr train [2]: −0.1638

salvianolic-acid-B
IM Corr test [1, 9]: 0.001211 | M Corr test [1, 10]: −0.08646 | MSL Corr test [1, 11]: −0.06128 | TNBCType train [1, 8]: MSL | DTIO Corr test [2, 6]: 0.002256 | DTIO Corr train [2, 7]: −0.1092

N=C(N)NC(=N)Nc1cccc(Cl)c1 [m-Chlorophenylbiguanide]
IM Corr test [1, 3]: −0.148 | M Corr test [1, 4]: 0.08655 | MSL Corr test [1, 5]: 0.1129 | DTIO Corr test [2, 6]: −0.0968 | DTIO Corr train [2, 7]: −0.09639

C/C(=N\NC(=N)N)c1cc(NC(=O)CCCCCCCCC(=O)Nc2cc(/C(C)=N/NC(=N)N)cc(/C(C)=N/NC(=N)N)c2)cc(/C(C)=N/NC(=N)N)c1 [semapimod]
IM Corr test [1, 3]: 0.1267 | M Corr test [1, 4]: −0.09225 | MSL Corr test [1, 5]: −0.0812 | TNBCType train [1, 12]: MSL | DTIO Corr test [2, 6]: 0.207 | DTIO Corr train [2, 7]: 0.01264

C[C@@H](N)c1ccc(C(=O)Nc2ccnc3[nH]ccc23)cc1 [Y-39983]
IM Corr test [1, 9]: 0.05616 | M Corr test [1, 10]: −0.1022 | MSL Corr test [1, 11]: −0.1761 | DTIO Corr test [2, 13]: −0.02374 | DTIO Corr train [2, 14]: −0.00611

O=C(NCc1ccccc1)c1csc(Nc2ccncn2)n1 [thiazovivin]
IM Corr test [1, 9]: 0.0391 | M Corr test [1, 10]: −0.1082 | MSL Corr test [1, 11]: −0.2135 | TNBCType train [1, 8]: MSL | DTIO Corr test [2, 6]: 0.04845 | DTIO Corr train [2, 7]: 0.03374

Cc1c(Cl)cccc1Nc1ncccc1C(=O)O.NCCCC[C@H](N)C(=O)O [clonixin-lysinate]
IM Corr test [1]: −0.06378 | M Corr test [1]: 0.004709 | MSL Corr test [1]: −0.03679 | TNBCType train [1]: MSL | DTIO Corr test [2]: −0.01494 | DTIO Corr train [2]: −0.00484

C=CC(=O)Nc1cc2c(Nc3ccc(F)c(Cl)c3)ncnc2cc1C#CC(C)(C)N1CCN(C)CC1.Cc1ccc(S(=O)(=O)O)cc1.Cc1ccc(S(=O)(=O)O)cc1 [AV-412]
IM Corr test [1, 3]: −0.1668 | M Corr test [1, 4]: 0.2317 | MSL Corr test [1, 5]: 0.3378 | DTIO Corr test [2, 6]: −0.04654 | DTIO Corr train [2, 7]: −0.09469 | DTIO Corr test ([2]; correlation of compound sensitivity with DTIO, test set): −0.04654 | DTIO Corr train ([2]; correlation of compound sensitivity with DTIO, training set): −0.09469

CC(C)C[C@H](NC(=O)CNC(=O)[C@H](Cc1ccc(O)cc1)NC(=O)[C@H](CO)NC(=O)[C@H](Cc1c[nH]c2ccccc12)NC(=O)[C@H](Cc1cnc[nH]1)NC(=O)[C@@H]1CCC(=O)N1)C(=O)N[C@@H](CCCNC(=N)N)C(=O)N1CCC[C@H]1C(=O)NCC(N)=O [gonadorelin]
IM Corr test [1, 9]: −0.1061 | M Corr test [1, 10]: −0.01145 | MSL Corr test [1, 11]: −0.1224 | TNBCType train ([1]; subtype (IM, MSL or M) the PRISM compound sensitivity is associated with, training cell set (371 cell lines), 101 gene signature): MSL | DTIO Corr test ([2]; correlation of PRISM compound sensitivity with DTIO, test cell set (188 cell lines)): −0.06774 | DTIO Corr train ([2]; correlation of PRISM compound sensitivity with DTIO, training cell set (371 cell lines)): −0.05189

COc1ccc2nc3c(c(N)c2c1)CCCC3 [7-methoxytacrine]
IM Corr test [1, 3]: −0.03879 | M Corr test [1, 4]: −0.03683 | MSL Corr test [1, 5]: −0.06604 | TNBCType train [1, 12]: MSL | DTIO Corr test [2, 6]: 0.06329 | DTIO Corr train [2, 7]: −0.03204

C/C(=N\NC(=O)[C@H]1C(=O)NC[C@@H]1c1ccccc1)c1cccc(Br)c1 [AC-264613]
IM Corr test [1, 9]: −0.07621 | M Corr test [1, 10]: 0.0938 | MSL Corr test [1, 11]: 0.002402 | DTIO Corr test [2, 13]: −0.03521 | DTIO Corr train [2, 14]: −0.07682

iodoquinol
IM Corr test [1, 9]: 0.03942 | M Corr test [1, 10]: −0.09894 | MSL Corr test [1, 11]: −0.104 | TNBCType train [1, 15]: MSL | DTIO Corr test [2, 13]: 0.03163 | DTIO Corr train [2, 14]: −0.06766

COc1ccccc1N1CCN(CCCCN2C(=O)CCC2=O)CC1 [MM77]
IM Corr test [1, 3]: −0.07111 | M Corr test [1, 4]: 0.07806 | MSL Corr test [1, 5]: 0.009431 | DTIO Corr test [2, 6]: −0.06165 | DTIO Corr train [2, 7]: −0.1241

CC(=O)NCC(=O)N1[C@@H]2CC[C@H]1c1ccc(Nc3ncc(C(F)(F)F)c(NC4CCC4)n3)cc12 [PF-03814735]
IM Corr test [1, 9]: 0.01597 | M Corr test [1, 10]: −0.07539 | MSL Corr test [1, 11]: −0.04366 | TNBCType train [1, 15]: MSL | DTIO Corr test [2, 13]: −0.05974 | DTIO Corr train [2, 14]: −0.01193

Nc1nc(-c2ccc(Cl)c(Cl)c2)c(-c2ccncc2)s1 [CGH2466]
IM Corr test [1, 9]: −0.07415 | M Corr test [1, 10]: 0.03776 | MSL Corr test [1, 11]: 0.04331 | DTIO Corr test [2, 13]: −0.01803 | DTIO Corr train [2, 14]: −0.09319

C=CCn1c(=O)c2cnc(Nc3ccc(N4CCN(C)CC4)cc3)nc2n1-c1cccc(C(C)(C)O)n1 [MK-1775]
IM Corr test [1, 3]: −0.1878 | M Corr test [1, 4]: 0.1655 | MSL Corr test [1, 5]: 0.1175 | DTIO Corr test [2, 6]: −0.1537 | DTIO Corr train [2, 7]: −0.09981

O=C(c1cc(Cc2n[nH]c(=O)c3ccccc23)ccc1F)N1CCN(C(=O)C2CC2)CC1 [K02113016]
DTIO Corr test [2, 16]: 0.06404 | DTIO Corr train [2, 17]: 0.02661

COc1ccc(C2=N[C@@H](c3ccc(Cl)cc3)[C@@H](c3ccc(Cl)cc3)N2C(=O)N2CCNC(=O)C2)c(OC(C)C)c1 [A12230535]
DTIO Corr test [2, 16]: 0.1503 | DTIO Corr train [2, 17]: 0.1606

Nc1nccc2c1ncn2C1C=C(CO)C(O)C1O (stereo not shown) [K77791657]
DTIO Corr test [2, 16]: −0.05245 | DTIO Corr train [2, 17]: −0.1309

C=CC(=O)Nc1cc(Nc2nccc(-c3cn(C)c4ccccc34)n2)c(OC)cc1N(C)CCN(C)C [K42805893]
DTIO Corr test [2, 16]: 0.0753 | DTIO Corr train [2, 17]: −0.06781

COc1cc(N2CCC(N3CCN(C)CC3)CC2)ccc1Nc1ncc(Cl)c(Nc2ccccc2P(C)(C)=O)n1 [K56981171]
DTIO Corr test [2, 16]: 0.04024 | DTIO Corr train [2, 17]: −0.1728

C[C@@H]1COC(Nc2ccc3ncnc(Nc4ccc(OCc5nccs5)c(Cl)c4)c3c2)=N1 [K46386702]
DTIO Corr test [2, 16]: −0.03109 | DTIO Corr train [2, 17]: −0.05992

NC(=O)c1cccc2cn(-c3ccc([C@@H]4CCCNC4)cc3)nc12 [K54955827]
DTIO Corr test [2, 16]: −0.03477 | DTIO Corr train [2, 17]: 0.03577

Cn1c(Nc2ccc(C(F)(F)F)cc2)nc2cc(Oc3ccnc(-c4ncc(C(F)(F)F)[nH]4)c3)ccc21 [K93123848]
DTIO Corr test [2, 16]: 0.1916 | DTIO Corr train [2, 17]: 0.1011

COc1cc2nccc(Oc3ccc(NC(=O)Nc4ccc(F)cc4F)c(F)c3)c2cc1OC [K47150025]
DTIO Corr test [2, 16]: 0.03732 | DTIO Corr train [2, 17]: 0.02512

From US20250140406A1, “CLASSIFYING TUMORS AND PREDICTING RESPONSIVENESS” (Oncocyte Corporation, priority 2022, published 2025)
